The test system of data set [1] is cellular microtubules in A-10 cells. The data set is described as follows: Loss of cellular microtubules, indirect immunofluorescence in A-10 cells. Type of data set: cell-based.
Data set [2] has as its system SK-OV-3 MDR-1/M-6-6. The settings on record: other colchicine site agents; cited from earlier work.
The subject of a further data set is MDA-MB-435. In words: Breast cancer/endothelial cell IC50, MDA-MB-435. Type of data set: cell-based. The conditions noted are these: Homo sapiens, MDA-MB-435, read-out: IC50, MDA-MB-435.
The test system of another data set is MDA-MB-231. The data set is described as follows: Breast cancer/endothelial cell IC50, MDA-MB-231. Type of data set: cell-based. The conditions noted are these: Homo sapiens, MDA-MB-231, read-out: IC50, MDA-MB-231.
A further data set has as its system MCF-7. In words: Breast cancer/endothelial cell IC50, MCF-7. The settings on record: Homo sapiens, MCF7, read-out: IC50, MCF-7. Type of data set: cell-based.
The next data set deals with 4T-1. The data set is described as follows: Breast cancer/endothelial cell IC50, 4T-1. Type of data set: cell-based, murine. The settings on record: Mus musculus, 4T1, read-out: IC50, 4T-1.
In the next data set the test system is HUVEC endothelial cells. In words: Breast cancer/endothelial cell IC50, HUVEC. Type of data set: cell-based. The settings on record: Homo sapiens, read-out: IC50, HUVEC.
Data set [3] has as its system SK-OV-3 MDR-1/M-6-6. The data set is described as follows: cells. The conditions noted are these: Homo sapiens, SKOV3-MDR1-M6/6, read-out: Antiproliferative activity IC50, SK-OV-3 MDR-1/M-6-6.
Another data set concerns HeLa cells. In words: Cell cycle analysis by flow cytometry. The settings on record: 40 and 50 nM 11, 75 and 100 nM 21, 18 h. Type of data set: cell-based.
Data set [4] deals with MDA-MB-435 flank xenograft. In words: MDA-MB-435 flank xenograft model. Type of data set: in vivo, NCr athymic nu/nu mice. The settings on record: vs carrier treated mice.
For the next data set, the system named is 4T1 orthotopic allograft. In words: 4T1 triple negative breast orthotopic allograft model. The settings on record: 4T1 orthotopic model.
The target of data set [5] is purified porcine brain tubulin (Sus scrofa, UniProt P02554). The data set is described as follows: In vitro tubulin polymerization. The conditions noted are these: 10 μM compound.
Sequence of purified porcine brain tubulin (P02554 whole entry): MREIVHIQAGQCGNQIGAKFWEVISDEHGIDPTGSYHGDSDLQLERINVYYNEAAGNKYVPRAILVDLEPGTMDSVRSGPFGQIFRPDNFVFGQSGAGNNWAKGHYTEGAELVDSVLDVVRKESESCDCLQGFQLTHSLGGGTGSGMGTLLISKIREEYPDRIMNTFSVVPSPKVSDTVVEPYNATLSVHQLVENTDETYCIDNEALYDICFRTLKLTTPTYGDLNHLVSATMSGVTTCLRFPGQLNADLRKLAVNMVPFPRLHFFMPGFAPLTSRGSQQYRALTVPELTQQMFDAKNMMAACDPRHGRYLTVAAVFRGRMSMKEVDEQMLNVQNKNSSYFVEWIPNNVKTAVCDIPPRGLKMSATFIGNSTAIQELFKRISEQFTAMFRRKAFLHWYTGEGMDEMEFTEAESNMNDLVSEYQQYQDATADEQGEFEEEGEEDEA
Sequence of purified porcine brain tubulin (P02550 whole entry, further chain): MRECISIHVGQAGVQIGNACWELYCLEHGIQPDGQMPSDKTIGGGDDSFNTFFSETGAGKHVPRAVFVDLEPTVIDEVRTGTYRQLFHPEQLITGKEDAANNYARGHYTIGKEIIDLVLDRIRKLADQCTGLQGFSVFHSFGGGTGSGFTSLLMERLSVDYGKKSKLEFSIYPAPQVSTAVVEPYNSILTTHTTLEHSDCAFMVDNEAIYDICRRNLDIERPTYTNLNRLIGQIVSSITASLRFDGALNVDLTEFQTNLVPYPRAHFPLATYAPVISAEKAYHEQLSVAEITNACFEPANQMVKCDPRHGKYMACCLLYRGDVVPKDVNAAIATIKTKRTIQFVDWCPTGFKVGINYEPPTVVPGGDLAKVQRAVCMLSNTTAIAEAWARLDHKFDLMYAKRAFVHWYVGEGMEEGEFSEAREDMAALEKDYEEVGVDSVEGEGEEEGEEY
In the next data set the test system is MDA-MB-435 cells. In words: Apoptosis detection, Western blot of cleaved PARP. Type of data set: cell-based, human. Background: In western blotting, separated proteins are transferred to a membrane and probed.

A word on the EC50: it is the concentration at which the effect is half-maximal.

`COc1ccc(Nc2nc(C)nc3oc(C)cc23)cc1` [Compound 10, N-(4-methoxyphenyl)-2,6-dimethylfuro[2,3-d]pyrimidin-4-amine]: the “effect on cellular microtubules” value in data set [1] was “inactive”.
As to `COc1cc2c(cc1O)CC[C@@H]1[C@@H]2CC[C@]2(C)[C@@H](O)CC[C@@H]12` [2-methoxyestradiol], the “Rr (relative resistance), Pgp-expressing SK-OV-3 pair” value with SK-OV-3 MDR-1/M-6-6 [2] is given as 1.5–2.6.
For `COc1ccc(/C=C\c2cc(OC)c(OC)c(OC)c2)cc1O` [CA-4, combretastatin A-4], the IC50 with MDA-MB-435 came to 52.2 nM; with MDA-MB-231, 228 ± 2.9 nM; in the data set with MCF-7 it was 24.9 ± 1.4 nM; in the data set on 4T-1 it was 69.6 ± 8 nM; in the data set with HUVEC endothelial cells, 17.7 ± 3.6 nM.
With `CCCCN(c1ccc(OC)cc1)c1nc(C)nc2oc(C)cc12` [Compound 14, N-butyl-N-(4-methoxyphenyl)-2,6-dimethylfuro[2,3-d]pyrimidin-4-amine], the IC50 in the data set with SK-OV-3 MDR-1/M-6-6 [3] was greater than 10000 nM.
Consider `COc1ccc(N(C)c2nc(C)nc3oc(C)cc23)cc1.Cl` [Compound 21, N-(4-methoxyphenyl)-N,2,6-trimethylfuro[2,3-d]pyrimidin-4-amine hydrochloride], for which the “effect on cellular microtubules” value in data set [1] is reported as “dose-dependent loss of cellular microtubules”. The half-maximal effective concentration (EC50) in [1] (read-out: EC50 for microtubule depolymerization, 18 h, 50% loss of cellular microtubules) came out at 570 nM. In addition, the “effect on cell cycle distribution (G2/M)” value with HeLa cells was “initiated dose-dependent mitotic accumulation”. For the same compound, in data set [4], the “tumor vascular density (CD31/PECAM-1 staining)” value was “decreased tumor vascular density”. In addition, in the data set with 4T1 orthotopic allograft, the animal weight loss entry was “less weight loss than docetaxel”. In the data set with 4T1 orthotopic allograft (21 twice weekly at MTD), the primary tumor growth result is given as “as active as docetaxel at reducing primary tumor growth”. Also, in the data set on 4T1 orthotopic allograft (compared to docetaxel), the lung metastases entry is “reduced the size (Figure 9D; metastases at arrows) but not the number”. Moreover, the “inhibition of polymerization of purified tubulin” value in data set [5] is recorded as “almost completely inhibited the polymerization of tubulin”.
For the compound `COc1ccc(N(C)c2nc(C)nc3oc(C)cc23)cc1` [Compound 11, N-(4-methoxyphenyl)-N,2,6-trimethylfuro[2,3-d]pyrimidin-4-amine], the “effect on cell cycle distribution (G2/M)” value in the data set on HeLa cells is on record as “initiated mitotic accumulation”. The “cleaved PARP level” value with MDA-MB-435 cells (75 nM 11, 18 h) is “slight increase in cleaved PARP”; with MDA-MB-435 cells (36 h, 75 nM 11, 120 nM 21) it was “much higher levels of cleaved PARP”. In addition, the “inhibition of polymerization of purified tubulin” value in [5] is recorded as “almost completely inhibited the polymerization of tubulin”.

The values above are taken from article PMC4089508 (Bioorganic & medicinal chemistry, 2014).
